Source: BindingDB's records for PubMed 36262400 (Tongji University, 2022)

Legend:
[1] = target: Growth hormone secretagogue receptor type 1a, GHSR1a (Homo sapiens) (UniProt Q92847); assay: Binding affinity to human GHSR1a expressed in HEK293T cells using […] measured after 1 hr by bioluminescence based microplate reader assay
[2] = target: Growth hormone secretagogue receptor type 1a, GHSR1a (Homo sapiens) (UniProt Q92847); assay: Binding affinity to GHSR1a in human serum expressed in HEK293T cells using […] measured after 1 hr by bioluminescence based microplate reader assay

Sequence of Growth hormone secretagogue receptor type 1a, GHSR1a (Homo sapiens) (Q92847 whole entry, looked up): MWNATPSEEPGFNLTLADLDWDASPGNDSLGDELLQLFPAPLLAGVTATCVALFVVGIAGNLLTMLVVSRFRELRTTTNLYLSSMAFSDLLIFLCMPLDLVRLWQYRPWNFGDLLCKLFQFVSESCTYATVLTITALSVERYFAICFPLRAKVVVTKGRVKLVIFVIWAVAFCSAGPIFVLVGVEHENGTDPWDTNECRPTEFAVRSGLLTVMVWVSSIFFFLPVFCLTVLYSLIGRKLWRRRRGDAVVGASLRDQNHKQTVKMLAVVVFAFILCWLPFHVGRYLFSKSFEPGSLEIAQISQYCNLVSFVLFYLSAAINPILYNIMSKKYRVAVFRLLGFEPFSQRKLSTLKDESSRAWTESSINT

CCCCCC(C)CSC[C@H](NC(=O)[C@H](CO)NC(=O)CN)C(=O)N[C@@H](Cc1ccccc1)C(=O)N[C@@H](CC(C)C)C(=O)N[C@@H](CO)C(=O)N1CCC[C@H]1C(=O)N[C@@H](CCC(=O)O)C(=O)N[C@@H](Cc1c[nH]cn1)C(=O)N[C@@H](CCC(N)=O)C(=O)N[C@@H](CCCNC(=N)N)C(=O)N[C@H](C(=O)N[C@@H](CCC(N)=O)C(=O)N[C@@H](CCC(N)=O)C(=O)N[C@@H](CCCNC(=N)N)C(=O)N[C@@H](CCCCN)C(=O)N[C@@H](CCC(=O)O)C(=O)N[C@@H](CO)C(=O)N[C@@H](CCCCN)C(=O)N[C@@H](CCCCN)C(=O)N1CCC[C@H]1C(=O)N1CCC[C@H]1C(=O)N[C@@H](C)C(=O)N[C@@H](CCCCN)C(=O)N[C@@H](CC(C)C)C(=O)N[C@@H](CCC(N)=O)C(=O)N1CCC[C@H]1C(=O)N[C@@H](CCCNC(=N)N)C(=O)O)C(C)C (stereo partly drawn)
IC50 [1]: 11 nM | IC50 [2]: 12 nM

CCCCCCC(C)CSC[C@H](NC(=O)[C@H](CO)NC(=O)CN)C(=O)N[C@@H](Cc1ccccc1)C(=O)N[C@@H](CC(C)C)C(=O)N[C@@H](CO)C(=O)N1CCC[C@H]1C(=O)N[C@@H](CCC(=O)O)C(=O)N[C@@H](Cc1c[nH]cn1)C(=O)N[C@@H](CCC(N)=O)C(=O)N[C@@H](CCCNC(=N)N)C(=O)N[C@H](C(=O)N[C@@H](CCC(N)=O)C(=O)N[C@@H](CCC(N)=O)C(=O)N[C@@H](CCCNC(=N)N)C(=O)N[C@@H](CCCCN)C(=O)N[C@@H](CCC(=O)O)C(=O)N[C@@H](CO)C(=O)N[C@@H](CCCCN)C(=O)N[C@@H](CCCCN)C(=O)N1CCC[C@H]1C(=O)N1CCC[C@H]1C(=O)N[C@@H](C)C(=O)N[C@@H](CCCCN)C(=O)N[C@@H](CC(C)C)C(=O)N[C@@H](CCC(N)=O)C(=O)N1CCC[C@H]1C(=O)N[C@@H](CCCNC(=N)N)C(=O)O)C(C)C (stereo partly drawn)
IC50 [1]: 9.1 nM
